Data taken from patent US7507730B2, “Substituted pyrazolo[1,5-a]pyrimidines as potassium channel activators” (Bristol-Myers Squibb Company, priority 2005, dated 2009).

Target: Kv1.5 (Homo sapiens, UniProt P22460)
Test: Kv1.5 inhibition assay (IKur inhibitor assay per cited references)
Format: cell-based
Conditions: at 0.3 μM
Description: Assays to determine the degree of activity of a compound as an IKur inhibitor are well known in the art and are described in references such as J. Gen. Physiol. Apr.; 101 (4):513-43, and Br. J. Pharmacol. 1995 May; 115(2):267-74.

Kv1.5, sequence (P22460 whole entry): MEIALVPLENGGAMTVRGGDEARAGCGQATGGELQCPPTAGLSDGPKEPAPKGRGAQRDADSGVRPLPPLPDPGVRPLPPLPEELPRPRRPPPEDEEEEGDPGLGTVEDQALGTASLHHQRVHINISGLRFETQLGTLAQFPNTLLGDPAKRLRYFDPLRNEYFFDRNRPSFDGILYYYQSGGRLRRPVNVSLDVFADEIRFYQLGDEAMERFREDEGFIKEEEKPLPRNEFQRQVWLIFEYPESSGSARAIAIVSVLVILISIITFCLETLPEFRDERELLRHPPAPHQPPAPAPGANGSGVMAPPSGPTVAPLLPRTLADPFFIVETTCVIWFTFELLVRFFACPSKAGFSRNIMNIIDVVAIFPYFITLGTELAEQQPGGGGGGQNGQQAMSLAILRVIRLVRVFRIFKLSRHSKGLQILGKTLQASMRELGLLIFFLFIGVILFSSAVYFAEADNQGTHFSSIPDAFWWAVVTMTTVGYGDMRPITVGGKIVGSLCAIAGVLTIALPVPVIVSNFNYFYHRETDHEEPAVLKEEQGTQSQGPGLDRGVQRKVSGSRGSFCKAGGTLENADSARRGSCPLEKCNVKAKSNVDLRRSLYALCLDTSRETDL

Compound | inhibition at 0.3 µM [%] | Kv1.5% inhibition [%]
COc1cccc(S(=O)(=O)C2=C(C)Nc3cc(C(F)(F)F)nn3C2c2ccc(Cl)c(Cl)c2)c1 (single isomer, unassigned) [Example 39 Isomer 1, 7-(3,4-Dichlorophenyl)-6-(3-methoxyphenylsulfonyl)-5-methyl-2-(trifluoromethyl)-4,7-dihydropyrazolo[1,5-a]pyrimidine] | 78.6 | –
CC1=C(C(=O)N(C)S(=O)(=O)c2ccccc2)C(c2ccc(Cl)c(Cl)c2)n2nc(C(F)(F)F)cc2N1 (single isomer, unassigned) [Example 90 Isomer 1, 7-(3,4-Dichlorophenyl)-N,5-dimethyl-N-(phenylsulfonyl)-2-(trifluoromethyl)-4,7-dihydropyrazolo[1,5-a]pyrimidine-6-carboxamide] | 37 | –
CC1=C(S(=O)(=O)N2CCCC2)C(c2cc3ccccc3n2C)n2nc(C(F)(F)F)cc2N1 (racemic) [Example 71, 5-Methyl-7-(1-methyl-1H-indol-2-yl)-6-(pyrrolidin-1-ylsulfonyl)-2-(trifluoromethyl)-4,7-dihydropyrazolo[1,5-a]pyrimidine] | 41 | –

The remaining lines, values ahead:

inhibition at 0.3 µM [%] | Kv1.5% inhibition [%] | Compound
47.6 | – | CC1=C(S(=O)(=O)c2ccc(F)cc2)C(c2ccc(Cl)cc2)n2nc(C(F)(F)F)cc2N1 (single isomer, unassigned) [Example 27 Isomer 1, 7-(4-Chlorophenyl)-6-(4-fluorophenylsulfonyl)-5-methyl-2-(trifluoromethyl)-4,7-dihydropyrazolo[1,5-a]pyrimidine]
– | 90.8 | CC1=C(S(=O)(=O)c2ccccc2)C(c2ccc(Cl)c(F)c2)n2nc(C)cc2N1 (single isomer, unassigned) [Example 7 Isomer 1, 7-(4-Chloro-3-fluorophenyl)-2,5-dimethyl-6-(phenylsulfonyl)-4,7-dihydropyrazolo[1,5-a]pyrimidine]
– | 48 | CC1=C(S(=O)(=O)c2ccc(F)cc2)C(c2ccc(Cl)c(Cl)c2)n2nc(C)cc2N1 (single isomer, unassigned) [Example 1 Isomer 2, 7-(3,4-Dichlorophenyl)-6-(4-fluorophenylsulfonyl)-2,5-dimethyl-4,7-dihydropyrazolo[1,5-a]pyrimidine]
16 | – | COc1ccc(S(=O)(=O)N(C)C(=O)C2=C(C)Nc3cc(C)nn3C2c2ccc(Cl)c(Cl)c2)cc1 (single isomer, unassigned) [Example 81 Isomer 1, 7-(3,4-Dichlorophenyl)-N-(4-methoxyphenylsulfonyl)-N,2,5-trimethyl-4,7-dihydropyrazolo[1,5-a]pyrimidine-6-carboxamide]
